From ChEMBL document CHEMBL1667728, “Stachylines A-D from the sponge-derived fungus Stachylidium sp” (J Nat Prod, 2011) come the findings set out here.

Calls of active or inactive are those of the source. No cut-off for these calls is given here.

Experiment [1] deals with Human immunodeficiency virus. As to the kind of experiment: Antiviral activity against HIV. It is filed as functional, organism-based.
Experiment [2] relates to Influenza A virus. Put plainly: Antiviral activity against Influenza virus. It is filed as functional, organism-based.

Regarding `C=C(C)[C@H](O)COc1ccc(CCO)cc1`, the outcome in experiment [1] and in experiment [2] was inactive.
On to `C=C(C)[C@H](O)COc1ccc(CC(=O)O)cc1`, for which the outcome in experiment [1] and in experiment [2] was inactive.
With `C=C(C)[C@H](O)COc1ccc(CC=NO)cc1` (mixture of isomers), the result in experiment [1] and in experiment [2] was inactive.
